{"source": "ChEMBL document CHEMBL5537128", "about": "“Discovery of LWY713 as a potent and selective FLT3 PROTAC degrader with in vivo activity against acute myeloid leukemia” (Eur J Med Chem, 2024)", "key": {"[1]": {"molecular_target": "T1, Protein cereblon/Receptor-type tyrosine-protein kinase FLT3 (Homo sapiens, UniProt P36888+Q96SW2)", "assay": "PROTAC activity at CRBN/FLT3 in human MV4-11 cells harboring FLT3 ITD mutation assessed as induction of FLT3 degradation at 1 nM incubated for 6 hrs in presence of MG132 by immunoblotting analysis", "assay_type": "cell-based"}, "[2]": {"molecular_target": "T1, Protein cereblon/Receptor-type tyrosine-protein kinase FLT3", "assay": "PROTAC activity at CRBN/FLT3 in human MV4-11 cells harboring FLT3 ITD mutation assessed as induction of FLT3 degradation at 1 nM measured upto 12 hrs in presence of cycloheximide by immunoblotting analysis", "assay_type": "cell-based"}, "[3]": {"molecular_target": "T1, Protein cereblon/Receptor-type tyrosine-protein kinase FLT3", "assay": "PROTAC activity at CRBN/FLT3 in human MV4-11 cells harboring FLT3-ITD mutation assessed as induction of FLT3 degradation by measuring maximal efficacy incubated for 24 hrs by immunoblotting analysis relative to control", "assay_type": "cell-based"}, "[4]": {"test_system": "MV4-11", "assay": "Induction of apoptosis in human MV4-11 cells assessed as early apoptotic cells at 10 nM incubated for 48 hrs by Annexin V/7-AAD staining based flow cytometric analysis relative to control", "assay_type": "functional"}, "[5]": {"test_system": "MV4-11", "assay": "Induction of apoptosis in human MV4-11 cells assessed as late apoptotic cells at 10 nM incubated for 48 hrs by Annexin V/7-AAD staining based flow cytometric analysis relative to control", "assay_type": "functional"}, "[6]": {"test_system": "MV4-11", "assay": "Potency index, ratio of gilteritinib IC50 to test compound IC50 for antiproliferative activity against human MV4-11 cells assessed as inhibition of cell proliferation incubated for 72 hrs by CCK8 assay", "assay_type": "functional"}, "[7]": {"test_system": "MV4-11", "assay": "Antiproliferative activity against human MV4-11 cells assessed as inhibition of cell proliferation incubated for 72 hrs by CCK8 assay", "assay_type": "functional, cell-based", "conditions": "MV4-11, 72 h"}, "[8]": {"molecular_target": "T1, Protein cereblon/Receptor-type tyrosine-protein kinase FLT3", "assay": "PROTAC activity at CRBN/FLT3 in human MV4-11 cells harboring FLT3 ITD mutation assessed as induction of FLT3 degradation at 1 nM incubated for 6 hrs in presence of MLN4924 by immunoblotting analysis", "assay_type": "cell-based"}, "[9]": {"test_system": "MV4-11", "assay": "Inhibition of JAK/STAT5 signaling pathway in human MV4-11 cells assessed as reduction in STAT5 phosphorylation incubated for 24 hrs by immunoblotting analysis", "assay_type": "cell-based", "conditions": "dose 0.08-50 nM"}, "[10]": {"test_system": "MV4-11", "assay": "Induction of cell cycle arrest at G0/G1 phase in human MV4-11 cells assessed as G2/M phase cells at 2 nM incubated for 24 hrs by PI staining based flow cytometric analysis relative to control", "assay_type": "functional"}, "[11]": {"molecular_target": "Leukocyte tyrosine kinase receptor (Homo sapiens) (UniProt P29376)", "sequence (P29376 whole entry)": "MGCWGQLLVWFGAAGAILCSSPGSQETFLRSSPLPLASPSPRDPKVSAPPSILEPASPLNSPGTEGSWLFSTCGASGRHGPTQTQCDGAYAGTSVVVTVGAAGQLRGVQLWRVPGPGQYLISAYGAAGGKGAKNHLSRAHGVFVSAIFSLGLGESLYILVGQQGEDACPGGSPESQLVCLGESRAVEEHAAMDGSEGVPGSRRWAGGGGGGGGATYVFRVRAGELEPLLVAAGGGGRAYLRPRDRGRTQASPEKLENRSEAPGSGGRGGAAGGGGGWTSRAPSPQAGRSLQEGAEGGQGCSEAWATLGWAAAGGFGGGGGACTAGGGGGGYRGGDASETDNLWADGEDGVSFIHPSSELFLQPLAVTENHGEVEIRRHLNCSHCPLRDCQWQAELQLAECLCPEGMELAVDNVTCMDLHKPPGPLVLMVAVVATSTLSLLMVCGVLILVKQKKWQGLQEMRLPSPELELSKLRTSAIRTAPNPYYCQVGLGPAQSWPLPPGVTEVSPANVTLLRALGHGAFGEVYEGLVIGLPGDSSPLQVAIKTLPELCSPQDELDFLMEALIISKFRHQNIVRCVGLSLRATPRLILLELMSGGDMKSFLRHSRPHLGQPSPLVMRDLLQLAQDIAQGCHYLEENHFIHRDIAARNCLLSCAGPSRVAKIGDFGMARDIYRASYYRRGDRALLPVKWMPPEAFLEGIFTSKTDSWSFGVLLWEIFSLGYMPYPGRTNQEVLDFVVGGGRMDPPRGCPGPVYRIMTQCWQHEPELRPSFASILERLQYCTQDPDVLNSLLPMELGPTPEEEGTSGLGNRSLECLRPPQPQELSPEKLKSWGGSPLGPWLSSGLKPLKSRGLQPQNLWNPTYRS", "assay": "Induction of LTK degradation in human Raji cells at 1 to 10 nM measured upto 24 hrs by immunoblotting analysis", "assay_type": "cell-based", "conditions": "dose 1-10 nM"}, "[12]": {"molecular_target": "Tyrosine-protein kinase receptor UFO (Homo sapiens) (UniProt P30530)", "sequence (P30530 whole entry)": "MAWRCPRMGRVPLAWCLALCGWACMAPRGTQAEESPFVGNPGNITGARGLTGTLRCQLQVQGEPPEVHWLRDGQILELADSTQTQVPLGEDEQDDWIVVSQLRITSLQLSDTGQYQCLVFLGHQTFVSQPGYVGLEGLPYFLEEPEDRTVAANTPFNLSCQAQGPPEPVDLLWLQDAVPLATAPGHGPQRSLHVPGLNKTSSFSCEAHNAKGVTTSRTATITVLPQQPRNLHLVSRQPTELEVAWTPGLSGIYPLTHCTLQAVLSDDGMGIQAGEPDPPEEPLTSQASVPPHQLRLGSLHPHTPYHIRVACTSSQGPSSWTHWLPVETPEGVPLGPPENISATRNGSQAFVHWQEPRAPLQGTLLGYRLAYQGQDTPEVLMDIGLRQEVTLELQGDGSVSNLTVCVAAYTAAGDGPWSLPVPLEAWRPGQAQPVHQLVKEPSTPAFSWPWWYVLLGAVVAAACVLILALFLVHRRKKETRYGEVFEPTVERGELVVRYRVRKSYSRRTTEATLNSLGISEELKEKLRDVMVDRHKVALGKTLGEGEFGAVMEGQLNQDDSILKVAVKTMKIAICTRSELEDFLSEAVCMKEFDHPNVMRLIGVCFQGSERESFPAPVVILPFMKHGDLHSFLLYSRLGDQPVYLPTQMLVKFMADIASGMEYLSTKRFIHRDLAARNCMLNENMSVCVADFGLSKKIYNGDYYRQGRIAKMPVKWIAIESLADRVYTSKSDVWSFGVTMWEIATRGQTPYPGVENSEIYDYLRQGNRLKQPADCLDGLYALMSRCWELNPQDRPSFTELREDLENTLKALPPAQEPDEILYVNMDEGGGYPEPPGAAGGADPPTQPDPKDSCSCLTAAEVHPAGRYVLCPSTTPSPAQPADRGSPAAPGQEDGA", "assay": "Induction of AXL degradation in human MDA-MB-231 cells at 1 to 10 nM measured upto 20 hrs by immunoblotting analysis", "assay_type": "cell-based", "conditions": "dose 1-10 nM"}, "[13]": {"test_system": "MV4-11", "assay": "Inhibition of PI3K/AKT signaling pathway in human MV4-11 cells assessed as reduction in AKT phosphorylation incubated for 24 hrs by immunoblotting analysis", "assay_type": "cell-based", "conditions": "dose 0.08-50 nM"}, "[14]": {"test_system": "MV4-11", "assay": "Induction of cell cycle arrest at G0/G1 phase in human MV4-11 cells assessed as S phase cells at 0.4 nM incubated for 24 hrs by PI staining based flow cytometric analysis relative to control", "assay_type": "functional"}, "[15]": {"test_system": "MV4-11", "assay": "Induction of apoptosis in human MV4-11 cells assessed as late apoptotic cells at 2 nM incubated for 48 hrs by Annexin V/7-AAD staining based flow cytometric analysis relative to control", "assay_type": "functional"}, "[16]": {"test_system": "MV4-11", "assay": "Induction of cell cycle arrest at G0/G1 phase in human MV4-11 cells assessed as sub-G0/G1 phase cells at 2 nM incubated for 24 hrs by PI staining based flow cytometric analysis relative to control", "assay_type": "functional"}, "[17]": {"assay": "Toxicity in NOD/SCID mouse xenografted with human MV4-11 cells assessed as weight loss at 6 mg/kg, ip administered once daily for 21 days", "assay_type": "organism-based", "conditions": "in vivo, 504 h, time 21 day"}, "[18]": {"test_system": "MV4-11", "assay": "Induction of cell cycle arrest at G0/G1 phase in human MV4-11 cells assessed as G2/M phase cells at 0.4 nM incubated for 24 hrs by PI staining based flow cytometric analysis relative to control", "assay_type": "functional"}, "[19]": {"molecular_target": "ALK tyrosine kinase receptor (Homo sapiens) (UniProt Q9UM73)", "sequence (Q9UM73 19-1620 limits assumed)": "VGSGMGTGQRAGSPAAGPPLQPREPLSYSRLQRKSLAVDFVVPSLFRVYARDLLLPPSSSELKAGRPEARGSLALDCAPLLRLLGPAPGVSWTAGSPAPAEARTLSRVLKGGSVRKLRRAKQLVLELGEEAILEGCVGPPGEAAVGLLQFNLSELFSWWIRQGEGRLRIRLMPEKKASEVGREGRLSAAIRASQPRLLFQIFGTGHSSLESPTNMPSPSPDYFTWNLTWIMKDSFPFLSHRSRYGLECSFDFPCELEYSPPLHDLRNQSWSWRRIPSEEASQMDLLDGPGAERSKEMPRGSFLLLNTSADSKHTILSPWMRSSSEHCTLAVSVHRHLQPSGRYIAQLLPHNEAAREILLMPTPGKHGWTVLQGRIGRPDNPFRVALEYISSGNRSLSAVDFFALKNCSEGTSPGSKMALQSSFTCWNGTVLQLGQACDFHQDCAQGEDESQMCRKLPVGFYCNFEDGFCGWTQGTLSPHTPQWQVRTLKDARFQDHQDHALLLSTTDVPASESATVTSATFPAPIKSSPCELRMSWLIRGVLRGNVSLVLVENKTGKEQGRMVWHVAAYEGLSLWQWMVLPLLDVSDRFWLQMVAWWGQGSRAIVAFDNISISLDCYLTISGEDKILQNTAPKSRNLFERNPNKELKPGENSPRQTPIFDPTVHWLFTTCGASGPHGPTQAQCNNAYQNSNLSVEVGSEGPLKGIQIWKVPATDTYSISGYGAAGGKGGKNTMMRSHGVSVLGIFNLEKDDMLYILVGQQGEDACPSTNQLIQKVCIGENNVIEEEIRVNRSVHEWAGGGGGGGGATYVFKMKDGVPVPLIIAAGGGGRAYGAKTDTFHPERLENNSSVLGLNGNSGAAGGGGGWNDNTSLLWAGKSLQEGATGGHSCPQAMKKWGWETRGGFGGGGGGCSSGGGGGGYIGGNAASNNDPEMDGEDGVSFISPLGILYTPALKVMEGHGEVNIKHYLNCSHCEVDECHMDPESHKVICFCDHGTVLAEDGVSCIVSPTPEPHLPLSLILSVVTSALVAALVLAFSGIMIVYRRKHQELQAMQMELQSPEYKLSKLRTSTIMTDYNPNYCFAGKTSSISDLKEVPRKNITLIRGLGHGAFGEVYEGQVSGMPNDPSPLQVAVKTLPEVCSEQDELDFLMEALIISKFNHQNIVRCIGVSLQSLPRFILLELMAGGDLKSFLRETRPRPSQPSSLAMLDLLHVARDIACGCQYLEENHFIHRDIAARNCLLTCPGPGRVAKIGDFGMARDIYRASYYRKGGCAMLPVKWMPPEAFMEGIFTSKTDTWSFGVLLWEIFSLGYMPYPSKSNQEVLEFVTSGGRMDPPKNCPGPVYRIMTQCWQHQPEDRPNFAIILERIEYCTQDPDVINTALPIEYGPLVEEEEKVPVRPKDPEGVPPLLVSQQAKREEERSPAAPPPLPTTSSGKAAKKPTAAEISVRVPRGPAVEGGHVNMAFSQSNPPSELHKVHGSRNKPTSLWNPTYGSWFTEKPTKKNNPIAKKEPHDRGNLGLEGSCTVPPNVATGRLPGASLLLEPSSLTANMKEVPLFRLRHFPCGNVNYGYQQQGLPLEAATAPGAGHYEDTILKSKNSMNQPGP", "assay": "Induction of ALK degradation in human Raji cells at 1 to 10 nM measured upto 24 hrs by immunoblotting analysis", "assay_type": "cell-based", "conditions": "dose 1-10 nM"}, "[20]": {"test_system": "MV4-11", "assay": "Induction of apoptosis in human MV4-11 cells assessed as early apoptotic cells at 2 nM incubated for 48 hrs by Annexin V/7-AAD staining based flow cytometric analysis relative to control", "assay_type": "functional"}, "[21]": {"molecular_target": "T1, Protein cereblon/Receptor-type tyrosine-protein kinase FLT3", "assay": "PROTAC activity at CRBN/FLT3 in human MV4-11 cells harboring FLT3 ITD mutation assessed as induction of FLT3 degradation at 1 nM incubated for 6 hrs in presence of lenalidomide by Immunoblotting analysis", "assay_type": "cell-based"}, "[22]": {"test_system": "MV4-11", "assay": "Induction of cell cycle arrest at G0/G1 phase in human MV4-11 cells assessed as S phase cells at 2 nM incubated for 24 hrs by PI staining based flow cytometric analysis relative to control", "assay_type": "functional"}, "[23]": {"molecular_target": "T1, Protein cereblon/Receptor-type tyrosine-protein kinase FLT3", "assay": "PROTAC activity at CRBN/FLT3 in human MV4-11 cells harboring FLT3 ITD mutation assessed as induction of FLT3 degradation at 1 nM incubated for 6 hrs in presence of bafilomycin by immunoblotting analysis", "assay_type": "cell-based"}, "[24]": {"molecular_target": "T1, Protein cereblon/Receptor-type tyrosine-protein kinase FLT3", "assay": "PROTAC activity at CRBN/FLT3 in human MV4-11 cells harboring FLT3-ITD mutation assessed as induction of FLT3 degradation at 1 nM incubated for 2 to 20 hrs by Immunoblotting analysis", "assay_type": "cell-based", "conditions": "time 2-20 hrs"}, "[25]": {"test_system": "MV4-11", "assay": "Induction of cell cycle arrest at G0/G1 phase in human MV4-11 cells assessed as G0/G1 phase cells at 2 nM incubated for 24 hrs by PI staining based flow cytometric analysis relative to control", "assay_type": "functional"}, "[26]": {"test_system": "MV4-11", "assay": "Induction of apoptosis in human MV4-11 cells assessed as necrotic cells at 10 nM incubated for 48 hrs by Annexin V/7-AAD staining based flow cytometric analysis relative to control", "assay_type": "functional"}, "[27]": {"molecular_target": "T1, Protein cereblon/Receptor-type tyrosine-protein kinase FLT3", "assay": "PROTAC activity at CRBN/FLT3 in human MV4-11 cells harboring FLT3-ITD mutation assessed as reduction in FLT3 phosphorylation incubated for 24 hrs by immunoblotting analysis", "assay_type": "cell-based", "conditions": "dose 0.08-50 nM"}, "[28]": {"test_system": "MV4-11", "assay": "Induction of apoptosis in human MV4-11 cells assessed as increase in cleaved caspase 3 level at 2 to 10 nM incubated for 48 hrs by immunoblotting analysis", "assay_type": "functional, cell-based", "conditions": "dose 2-10 nM"}, "[29]": {"molecular_target": "T1, Protein cereblon/Receptor-type tyrosine-protein kinase FLT3", "assay": "PROTAC activity at CRBN/FLT3 in human MV4-11 cells harboring FLT3 ITD mutation assessed as induction of FLT3 degradation at 1 nM incubated for 6 hrs in presence of gilteritinib by immunoblotting analysis", "assay_type": "cell-based"}, "[30]": {"test_system": "MV4-11", "assay": "Induction of cell cycle arrest at G0/G1 phase in human MV4-11 cells assessed as G0/G1 phase cells at 0.4 nM incubated for 24 hrs by PI staining based flow cytometric analysis relative to control", "assay_type": "functional"}, "[31]": {"test_system": "MV4-11", "assay": "Induction of cell cycle arrest at G0/G1 phase in human MV4-11 cells assessed as sub-G0/G1 phase cells at 0.4 nM incubated for 24 hrs by PI staining based flow cytometric analysis relative to control", "assay_type": "functional"}, "[32]": {"test_system": "MV4-11", "assay": "Inhibition of ERK phosphorylation in human MV4-11 cells incubated for 24 hrs by immunoblotting analysis", "assay_type": "cell-based", "conditions": "dose 0.08-50 nM"}, "[33]": {"test_system": "MV4-11", "assay": "Induction of apoptosis in human MV4-11 cells incubated for 48 hrs by Annexin V/7-AAD staining based flow cytometric analysis", "assay_type": "functional, cell-based", "conditions": "dose 0.016-10 nM"}, "[34]": {"molecular_target": "T1, Protein cereblon/Receptor-type tyrosine-protein kinase FLT3", "assay": "PROTAC activity at CRBN/FLT3 in human MV4-11 cells harboring FLT3-ITD mutation assessed as induction of FLT3 degradation incubated for 24 hrs by immunoblotting analysis", "assay_type": "cell-based"}, "[35]": {"test_system": "MV4-11", "assay": "Induction of apoptosis in human MV4-11 cells assessed as increase in cleaved PARP level at 2 to 10 nM incubated for 48 hrs by immunoblotting analysis", "assay_type": "functional, cell-based", "conditions": "dose 2-10 nM"}, "[36]": {"test_system": "MV4-11", "assay": "Antitumor activity against human MV4-11 cells xenografted in NOD/SCID mouse assessed as reduction in tumor volume at 6 mg/kg, ip administered once a day for 21 days", "assay_type": "functional, organism-based", "conditions": "time 21.0 day"}}, "note": "Active and inactive are the calls of the source. The calls are words filed in the database; no cut-off is given here.", "data": [{"smiles": "CCc1nc(C(N)=O)c(Nc2ccc(N3CCC(N4CCN(C(=O)COc5cccc6c5CN(C5CCC(=O)NC5=O)C6=O)CC4)CC3)c(OC)c2)nc1NC1CCOCC1", "note": "(configuration not stated)", "values": [{"measurement": "Activity", "setting": "[1]", "value": "inactive"}, {"measurement": "Activity", "setting": "[2]", "value": "Active"}, {"measurement": "Emax", "setting": "[3]", "value": 94.8, "unit": "%"}, {"measurement": "Activity", "setting": "[4]", "value": 3.4, "unit": "%"}, {"measurement": "Activity", "setting": "[5]", "value": 33.1, "unit": "%"}, {"measurement": "Ratio IC50", "setting": "[6]", "value": 4.6}, {"measurement": "IC50", "setting": "[7]", "value": 1.5, "unit": "nM"}, {"measurement": "Activity", "setting": "[8]", "value": "inactive"}, {"measurement": "inhibition", "setting": "[9]", "value": "Dose-Dependent Effect"}, {"measurement": "Activity", "setting": "[10]", "value": 8.1, "unit": "%"}, {"measurement": "Activity", "setting": "[11]", "value": "inactive"}, {"measurement": "Activity", "setting": "[12]", "value": "inactive"}, {"measurement": "inhibition", "setting": "[13]", "value": "Dose-Dependent Effect"}, {"measurement": "Activity", "setting": "[14]", "value": 5.6, "unit": "%"}, {"measurement": "Activity", "setting": "[15]", "value": 24.8, "unit": "%"}, {"measurement": "Activity", "setting": "[16]", "value": 6.8, "unit": "%"}, {"measurement": "Activity", "setting": "[17]", "value": "Non-Toxic"}, {"measurement": "Activity", "setting": "[18]", "value": 12.1, "unit": "%"}, {"measurement": "Activity", "setting": "[19]", "value": "inactive"}, {"measurement": "Activity", "setting": "[20]", "value": 2.8, "unit": "%"}, {"measurement": "Activity", "setting": "[21]", "value": "inactive"}, {"measurement": "Activity", "setting": "[22]", "value": 2.9, "unit": "%"}, {"measurement": "Activity", "setting": "[23]", "value": "Active"}, {"measurement": "Activity", "setting": "[24]", "value": "Active"}, {"measurement": "Activity", "setting": "[25]", "value": 82.1, "unit": "%"}, {"measurement": "Activity", "setting": "[26]", "value": 15.9, "unit": "%"}, {"measurement": "Activity", "setting": "[27]", "value": "Active"}, {"measurement": "Activity", "setting": "[28]", "value": "Active"}, {"measurement": "Activity", "setting": "[29]", "value": "inactive"}, {"measurement": "Activity", "setting": "[30]", "value": 79.8, "unit": "%"}, {"measurement": "Activity", "setting": "[31]", "value": 2.4, "unit": "%"}, {"measurement": "inhibition", "setting": "[32]", "value": "Dose-Dependent Effect"}, {"measurement": "Activity", "setting": "[33]", "value": "Dose-Dependent Effect"}, {"measurement": "Activity", "setting": "[34]", "value": "Dose-Dependent Effect"}, {"measurement": "DC50", "setting": "[34]", "value": 0.64, "unit": "nM"}, {"measurement": "Activity", "setting": "[35]", "value": "Active"}, {"measurement": "Activity", "setting": "[36]", "value": "Active"}]}]}
